The target in test [1] is T1, ThyX protein of H. pylori (Helicobacter pylori, UniProt O26061).
T1 construct: made in house
The test can be described thus: Tritium release from [5-3H]dUMP by purified ThyX (thymidylate synthase activity). It is filed as biochemical. To be noted: for inhibition of ThyX activity: result in words. From the text: In dTMP formation, the loss of tritium from […] in the solvent is a compulsory intermediary, allowing to quantify the thymidylate-synthetase activity after removal of radioactive nucleotides from the reaction mixtures (ROBERTS, 1966). In order to tackle the biochemical mechanism, wherein ThyX could circumvent the requirement for the ThyA in the de novo synthesis of thymydilate, the purified ThyX protein was used to the same extent.
N^5,N^10—CH2H4folate was non-enzymatically formed, through incubation of 2 mM of tetrahydrofolic acid (Sigma®) with 100 mM of β-mercaptoethanol and 20 mM of formol for 30 minutes in the dark and at room temperature. […] The control reactions were achieved under analogous conditions, without tetrahydrofolic acid. […], a specific activity at 16,2 Ci/mmol (Amersham) and stopped after 60 minutes at 37° C. by two extractions with 250 μl of active carbon [10% (weight/volume) of Norit A] in 2% trichloroacetic acid so as to remove the nucleotides from the reaction mixtures. The remanent radioactivity in the supernatant was determined according to MYLLYKALLIO (2000).

Test [2] deals with transformants containing thyX in the E.coli X2913(ΔthyA) strain. To be noted: only high trimethoprim concentrations inhibit.

T1 sequence (O26061 whole entry): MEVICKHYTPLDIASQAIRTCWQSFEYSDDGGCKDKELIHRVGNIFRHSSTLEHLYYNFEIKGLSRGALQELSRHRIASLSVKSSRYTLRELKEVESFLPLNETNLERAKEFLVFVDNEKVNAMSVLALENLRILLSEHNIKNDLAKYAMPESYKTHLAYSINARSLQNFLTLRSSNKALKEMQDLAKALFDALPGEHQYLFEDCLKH

Turning to `Nc1nc2c(c(=O)[nH]1)N1CN(c3ccc(C(=O)N[C@@H](CCC(=O)O)C(=O)O)cc3)CC1CN2` (stereo partly shown) [CH2H4folate], the “concentration sufficient for saturating the release activity of tritium” value in test [1] (complete reaction conditions, 60 minutes incubation) was determined as 100 µM.

For `O=c1ccn([C@@H]2O[C@H](COP(=O)(O)O)[C@@H](O)[C@H]2O)c(=O)[nH]1` [UMP], in test [1] (complete test plus 500 μM of the added nucleotide, 9 μM 3H-dUMP, 60 minute incubation), the “nmol of released ^3H/mg of protein (60 minute incubation)” value is reported as 64.4 nmol of released ^3H/mg of protein. Besides, the “released ^3H as % of the complete test” value in test [1] (complete test plus 500 μM of the added nucleotide, complete = 100%, 60 minute incubation) is reported as 102.2%. In addition, the “use as substrate by the ThyX activity (competition experiments)” value in test [1] (simple competition experiments) is listed as “does not use UMP as a substrate”.

Turning to `Cc1cn([C@H]2C[C@H](O)[C@@H](COP(=O)(O)O)O2)c(=O)[nH]c1=O` [dTMP, thymidine 5′-monophosphate], the “inhibition of ThyX activity” value in test [1] was “inhibited”.

For the compound `O=c1[nH]c(=O)n([C@H]2C[C@H](O)[C@@H](COP(=O)(O)O)O2)cc1F` [fluoro-dUMP], in test [1], the “inhibition of ThyX activity” value is given as “inhibitor”.

Regarding `COc1cc(Cc2cnc(N)nc2N)cc(OC)c1OC` [trimethoprim], in test [2], the “inhibition of growth of thyX transformants” value was “inhibited”.

Source of the values: patent US20040248195A1, “Uses of a thyx polypeptide or a nucleic acid encoding such a polypeptide, in particular for screening anti-bacterial or anti-viral compounds” (priority 2001, published 2004).
